Test results published in article PMC6268492, “Synthesis and Antiangiogenic Activity of Novel Gambogic Acid Derivatives” (Molecules, 2012).
Like-named read-outs stand apart in the source and are kept apart here.

What was measured:
[1] = system: HUVEC; experiment: MTT assay, cell proliferation; type: cell-based, Human; conditions: Homo sapiens, 24 h, read-out: IC50, inhibition of cell proliferation
Procedure: Inhibiting the proliferation of ECs is another important strategy for antiangiogenesis. […] As the exposure time of these derivatives was 24 h in the migration assay and 6 h in the tube formation assay, the effect of the incubation for 24 h in the presence of these compounds on HUVECs proliferation was then tested. Cell viability was assessed by the MTT method. We can see from Table 4 that these compounds had different antiproliferative activities.
(§1) HepG2, HCT116, HeLa and LO2 cell lines were cultured in DMEM containing 10% fetal bovine serum (FBS), 100 IU/mL penicillin and 100 µg/mL streptomycin; A549 and K562 cell lines were cultured in RPMI 1640 medium containing 10% fetal bovine serum (FBS), 100 IU/mL penicillin and 100 µg/mL streptomycin; Human umbilical vein endothelial cells (HUVECs) were cultured on gelatin-coated culture flasks in M-199 medium with 20% fetal bovine serum (FBS), 2 ng/mL VEGF, 10 ng/mL basic FGF, 100 IU/mL penicillin, and 100 μg/mL streptomycin; all of them were obtained from the American Type Culture Collection (ATCC) and all cell lines were incubated in an atmosphere of 5% CO2 at 37 °C.
(§2) Cells were treated with various concentrations of compound in 96-well culture plates for 24 h in final volumes of 200 μL (5 × 10^3 cells/well). Then 20 μL of MTT solution (5 mg/mL) was added to each well, and cells were incubated for an additional 3 h. Then the medium was carefully removed, and precipitates were dissolved in 150 μL of DMSO, shaken mechanically for 30 min, and then absorbance values at a wavelength of 570 nm were taken on a spectrophotometer (Molecular Devices, Sunnyvale, CA, USA). Values were calculated using percentage of growth versus untreated control. The IC50 was defined as the concentration that caused 50% inhibition of cell proliferation, and was calculated by SAS statistical software.

[2] = system: A549; experiment: MTT assay, cell proliferation; type: cell-based; conditions: Homo sapiens, 24 h, read-out: IC50, inhibition of cell proliferation
Procedure: as §1, §2

[3] = system: HeLa; experiment: MTT assay, cell proliferation; type: cell-based; conditions: Homo sapiens, 24 h, read-out: IC50, inhibition of cell proliferation
Procedure: as §1, §2

[4] = system: HepG2; experiment: MTT assay, cell proliferation; type: cell-based; conditions: Homo sapiens, 24 h, read-out: IC50, inhibition of cell proliferation
Procedure: as §1, §2

[5] = system: HCT116; experiment: MTT assay, cell proliferation; type: cell-based; conditions: Homo sapiens, HCT-116, 24 h, read-out: IC50, inhibition of cell proliferation
Procedure: as §1, §2

[6] = system: K562; experiment: MTT assay, cell proliferation; type: cell-based; conditions: Homo sapiens, 24 h, read-out: IC50, inhibition of cell proliferation
Procedure: as §1, §2

[7] = system: LO2; experiment: MTT assay, cytotoxicity; type: cell-based; conditions: Homo sapiens, L02, 24 h, read-out: IC50, inhibition of cell proliferation
Procedure: as §1, §2

[8] = system: transgenic fli-1: enhanced GFP zebrafish embryos; experiment: Zebrafish embryo assay: antiangiogenic effects; type: in vivo, zebrafish (Danio rerio); conditions: for antiangiogenic activities / inhibition in vivo at 2.5 µM: 2.5 μM; for antiangiogenic activities: not enhanced greatly at 10 μM; for inhibition in vivo at 1 µM / inhibition in vivo at 2.5 µM / inhibition in vivo at 10 µM: Danio rerio; for inhibition in vivo at 1 µM / inhibition in vivo at 2.5 µM / inhibition in vivo at 10 µM / antiangiogenic rates: zebrafish embryos; for inhibition in vivo at 1 µM / antiangiogenic rates: 1 μM
Procedure: As stated previously, zebrafish is regarded as a powerful tool in the study of human diseases. […] In this study, all GA derivatives were incubated with the transgenic friend leukemia integration-1 (fli-1): enhanced GFP zebrafish embryos which carried a fli-1 promoter which can drive the expression of GFP in the whole endothelium.
Figure 1 Effects on neovascularization in zebrafish embryos. The transgenic fli-1: enhanced GFP zebrafish embryos in embryo water (0.2 g/L of instant ocean salt in distilled water) incubated with 1 μM of compounds at 6 h postfertilization (hpf) for 24 h. Zebrafish embryos were imaged (Imager.Z1, magnification: left, 40×; right, 100×).
Using transgenic fli-1: enhanced GFP zebrafish embryos, we investigated the effects of all compounds on angiogenesis. […] At about 6 h post fertilization (hpf), the embryos were sorted in the 6-well plate (six embryos/well), removing dead and unhealthy embryos. Then the embryos were treated with the indicated concentrations of compounds which were added into embryo water. After incubation for 24 or 48 h, the embryos were anesthetized using 0.05% 2-phenoxyethanol in embryo water, quantified and photographed.

[9] = vs vehicle (0.05% DMSO), read-out: Anti-angiogenic phenotype

| SMILES | IC50 [1] [µM] | IC50 [2] [µM] | IC50 [3] [µM] | IC50 [4] [µM] | IC50 [5] [µM] | IC50 [6] [µM] | IC50 [7] [µM] | antiangiogenic activities [8] | inhibition in vivo at 1 µM ([8]; read-out: antiangiogenic rates) [%] | inhibition in vivo at 1 µM [8, 9] [%] | inhibition in vivo at 2.5 µM [8, 9] [%] | inhibition in vivo at 10 µM [8, 9] [%] | antiangiogenic rates [8] |
| --- | --- | --- | --- | --- | --- | --- | --- | --- | --- | --- | --- | --- | --- |
| CC(C)=CCCC1(C)C=Cc2c(O)c3c(c(CC=C(C)C)c2O1)OC12C(=CC4CC1C(C)(C)OC2(C/C=C(/C)C(=O)Oc1ccc(NC(=O)CCCl)cc1)C4=O)C3=O (stereo not drawn) [Compound 9, 3-Chloro-N-(4-phenylgambogate)propanamide] | 4.27 ± 0.25 | 3.75 ± 0.35 | 3.42 ± 0.19 | 5.16 ± 0.55 | 2.05 ± 0.41 | 1.14 ± 0.03 | 1 ± 0.1 | moderate | < 25 | < 25 | 25 to 50 | 25 to 50 |  |
| CC(C)=CCCC1(C)C=Cc2c(O)c3c(c(CC=C(C)C)c2O1)OC12C(=CC4CC1C(C)(C)OC2(C/C=C(/C)C(=O)Oc1ccc(Cl)cc1C=O)C4=O)C3=O (stereo not drawn) [Compound 23, 4-Chloro-2-formylphenyl gambogate] | 32 ± 1.76 | 73.5 ± 3.4 | 61.6 ± 5.86 | 19.9 ± 2.89 | 15.9 ± 1.46 | 15.5 ± 1.35 | 31.7 ± 1.94 |  |  |  |  | 25 to 50 | inactive |
| CC(C)=CCCC1(C)C=Cc2c(O)c3c(c(CC=C(C)C)c2O1)OC12C(=CC4CC1C(C)(C)OC2(C/C=C(/C)C(=O)Oc1ccc(C(=O)CBr)cc1)C4=O)C3=O (stereo not drawn) [Compound 16, 4-(2-Bromoacetyl)phenyl gambogate] | 11.9 ± 1.36 | > 80 | 8.98 ± 0.58 | 4.51 ± 0.29 | 5.08 ± 0.77 | 3.46 ± 0.34 | 5.25 ± 0.51 |  |  |  |  | 25 to 50 | inactive |
| CC(C)=CCCC1(C)C=Cc2c(O)c3c(c(CC=C(C)C)c2O1)OC12C(=CC4CC1C(C)(C)OC2(C/C=C(/C)C(=O)Oc1ccc(C=O)cc1)C4=O)C3=O (stereo not drawn) [Compound 20, 4-Formylphenyl gambogate] | 7.7 ± 0.32 | 31.2 ± 2.29 | 24.3 ± 2.13 | 5.86 ± 0.4 | 7.9 ± 0.14 | 4.52 ± 0.43 | 9.92 ± 0.52 |  |  |  |  | 25 to 50 | inactive |
| COc1ccc(OC(=O)/C(C)=C\CC23OC(C)(C)C4CC(C=C5C(=O)c6c(O)c7c(c(CC=C(C)C)c6OC542)OC(C)(CCC=C(C)C)C=C7)C3=O)cc1Br (stereo not drawn) [Compound 22, 2-Bromo-4-methoxyphenyl gambogate] | 51.3 ± 1.1 | > 80 | > 80 | 63.2 ± 3.88 | 36.9 ± 0.64 | 36.9 ± 0.56 | > 80 |  |  |  |  | 25 to 50 | inactive |
| CC(C)=CCCC1(C)C=Cc2c(O)c3c(c(CC=C(C)C)c2O1)OC12C(=CC4CC1C(C)(C)OC2(C/C=C(/C)C(=O)Nc1nc2ccccc2s1)C4=O)C3=O (stereo not drawn) [Compound 34, N-(benzo[d]thiazol-2-yl) gambogamide] | 5.63 ± 0.2 | 21.4 ± 3.71 | > 80 | 8.65 ± 0.46 | 7.74 ± 1.43 | > 20 | 7.3 ± 1.2 |  |  |  |  |  |  |
| CC(C)=CCCC1(C)C=Cc2c(O)c3c(c(CC=C(C)C)c2O1)OC12C(=CC4CC1C(C)(C)OC2(C/C=C(/C)C(=O)n1cccn1)C4=O)C3=O (stereo not drawn) [Compound 33, 1-Gambogyl pyrazole] | 0.57 ± 0.03 | 1.3 ± 0.08 | 4.23 ± 0.39 | 1 ± 0.06 | 1.2 ± 0.09 | 0.53 ± 0.05 | 1.75 ± 0.09 |  |  |  |  |  |  |
| CCc1ccc(OC(=O)/C(C)=C\CC23OC(C)(C)C4CC(C=C5C(=O)c6c(O)c7c(c(CC=C(C)C)c6OC542)OC(C)(CCC=C(C)C)C=C7)C3=O)cc1 (stereo not drawn) [Compound 21, 4-Ethylphenyl gambogate] | 70.5 ± 4.86 | > 80 | > 80 | > 80 | > 80 | > 80 | > 80 |  |  |  |  |  |  |
| CC(C)=CCCC1(C)C=Cc2c(O)c3c(c(CC=C(C)C)c2O1)OC12C(=CC4CC1C(C)(C)OC2(C/C=C(/C)C(=O)Oc1cc2ccccc2oc1=O)C4=O)C3=O (stereo not drawn) [Compound 6, Coumarin-3-gambogate] | 14.6 ± 0.34 | 19.7 ± 2.62 | 33.3 ± 1.83 | 25.8 ± 1.76 | 14.5 ± 1.22 | 5.47 ± 0.15 | > 20 |  |  |  |  |  |  |
| COCCc1ccc(OC(=O)/C(C)=C\CC23OC(C)(C)C4CC(C=C5C(=O)c6c(O)c7c(c(CC=C(C)C)c6OC542)OC(C)(CCC=C(C)C)C=C7)C3=O)cc1 (stereo not drawn) [Compound 18, 4-(2-Methoxyethyl)phenyl gambogate] | 10.4 ± 1.08 | 66.2 ± 1.65 | > 80 | 6.45 ± 0.37 | 2.45 ± 0.15 | 7.52 ± 0.83 | 15.2 ± 0.72 |  |  |  |  |  |  |
| CC(C)=CCCC1(C)C=Cc2c(O)c3c(c(CC=C(C)C)c2O1)OC12C(=CC4CC1C(C)(C)OC2(C/C=C(/C)C(=O)Oc1ccc(Br)cc1)C4=O)C3=O (stereo not drawn) [Compound 19, 4-Bromophenyl gambogate] | 68 ± 4 | > 80 | > 80 | > 80 | 70.2 ± 3.06 | > 80 | > 80 |  |  |  |  |  |  |
| CCCC(=O)Nc1ccc(OC(=O)/C(C)=C\CC23OC(C)(C)C4CC(C=C5C(=O)c6c(O)c7c(c(CC=C(C)C)c6OC542)OC(C)(CCC=C(C)C)C=C7)C3=O)cc1 (stereo not drawn) [Compound 26, 4-Butyramidophenyl gambogate] | 2.98 ± 0.1 | 4 ± 0.8 | 4.46 ± 0.57 | 1.72 ± 0.12 | 1.73 ± 0.44 | 0.77 ± 0.03 | 4.22 ± 0.5 | moderate | 25 to 50 | 25 to 50 | 25 to 50 | 25 to 50 |  |
